Measured values taken from patent US7473524B2, “Mutational profiles in HIV-1 protease correlated with phenotypic drug resistance” (priority 2002, dated 2009).

Columns and labels:
Format in all cases: cell-based
[1] = system: HIV-1/LAI; experiment: Antiviral activity in acutely infected MT4 cells, wild-type reference strain; settings: for EC50: Human immunodeficiency virus 1, wild-type HIV-1/LAI, no selection, MT4 cells, read-out: median(EC50 (μM)); for Fold resistance: wild-type HIV-1/LAI (reference), ratio of EC50 to wild type
Experimental: (§1) Determination of the antiviral activity of a compound was done as described in Pauwels R. et al. (J Virol Methods 1988; 20(4):309-21). Various concentrations of the test compounds were brought into each well of a flat-bottom microtiter plate. Subsequently, HIV and MT4 cells were added to a final concentration of 200-250 50% cell culture infectious doses (CCID50)/well and 30,000 cells/well, respectively. After 5 days of incubation (37° C., 5% CO2), the cytopathic effect of the replicating virus was determined by the tetrazolium colorimetric MTT method. The dose protecting 50% of the cells from virus cytopathic effect was defined as the EC50, while the dose achieving 90% protection was defined as the EC90.
(§2) The reporter gene assay used MT4-LTR-EGFP cells. Upon infection by HIV-1, the expression of the viral tat product increases transcription from the HIV-1 LTR promoter, leading to high-level expression of the reporter gene product. The assay procedure was similar to the CPE assay except for the end reading of the assay, which was performed on day 3 by measuring the relative fluorescence of treated cultures and comparing this with the relative fluorescence of untreated cultures. The EC50 or the EC90 of a compound was defined as the concentration that inhibited the relative fluorescence by 50% or 90% respectively.
(§3) The in vitro antiviral activity of compound 1 and current reverse transcriptase inhibitors against the selected strains was evaluated in acutely infected MT4 cells. Median EC50 values together with the fold change in resistance (expressed as a ration of EC50) as compared to wild type (FC) are reported.

[2] = system: HIV-1/LAI-derived strain L100L/I, Y181C, T386A; experiment: Antiviral activity in acutely infected MT4 cells, strain selected at high MOI with compound 1 0.200 μM; settings: for EC50: Human immunodeficiency virus 1, MT4, 600 h, day 25, read-out: median(EC50 (μM)); for Fold resistance: day 25, vs wild type
Experimental: as §1, §2
(§4) Cells are infected at a high MOI (such as 1-50 CCID50/cell), corresponding to >10^9 viral RNA copies/ml. These experiments have been designed to mimic the quasi-species variability that is observed in HIV infected individuals where 10^9 to 10^10 new viruses are produced daily with a mutation rate of 10^−4 to 10^−5. The infected MT4-LTR-EGFP cells are treated with inhibitors at 40, 200 nM, 1 μM and higher for a maximum of 30 days. The cultures are subcultivated and scored on virus-induced fluorescence and cytopathicity every 3-4 days. If full virus breakthrough (100% CPE) is observed the supernatants was collected and stored (new virus strain). If no full CPE was observed the cells were subcultivated and further grown in the presence of the same concentration compound till full virus breakthrough, with a maximum of 30 days. From the emerging virus populations a virus stock was grown in the absence of compounds and titrated. The sensitivities of the isolated strains to HIV-1 RT inhibitors were determined and the strains were genotyped.
as §3

[3] = system: HIV-1/LAI-derived strain Y181C, T386A; experiment: Antiviral activity in MT4 cells, low MOI strain selected at 0.040 μM, day 15; settings: Comp. 1 0.040 μM; for Fold resistance: vs wild type; for EC50: Human immunodeficiency virus 1, MT4, 360 h, read-out: median(EC50 (μM))
Experimental: as §1, §2
(§5) MT4-LTR-EGFP cells were infected at a multiplicity of infection (MOI) of 0.01 to 0.001 CCID50/cell in the presence of inhibitor. The cultures were sub-cultivated and scored microscopically on virus-induced fluorescence and cytopathogenicity every 3-4 days. The cultures were sub-cultivated in the presence of the same compound concentration until signs of virus replication were observed. The escaping virus was further cultivated in the presence of the same inhibitor concentration in order to enrich the population in resistant variants. If full virus breakthrough was observed the supernatant was collected and stored (new virus strain). Afterwards, the same virus was challenged with a higher compound concentration in order to select variants able to grow in the presence of as high as possible inhibitor concentrations. From the new viruses, a virus stock was grown in the absence of inhibitor.
as §3

[4] = system: HIV-1/LAI-derived strain E006E/K, Y181C, M230I, T386A; experiment: Antiviral activity in MT4 cells, low MOI strain selected at 0.200 μM, day 22; settings: Comp. 1 0.200 μM; for Fold resistance: vs wild type; for EC50: Human immunodeficiency virus 1, MT4, 528 h, read-out: median(EC50 (μM))
Experimental: as §1, §2, §5, §3

[5] = system: HIV-1/LAI-derived strain M164M/I, Y181C, D186D/N, M230M/I, T386A; experiment: Antiviral activity in MT4 cells, low MOI strain selected at 0.200 μM, day 28; settings: Comp. 1 0.200 μM; for Fold resistance: vs wild type; for EC50: Human immunodeficiency virus 1, MT4, 672 h, read-out: median(EC50 (μM))
Experimental: as §1, §2, §5, §3

[6] = system: HIV-1/LAI-derived strain Y181C, G190E, T386A; experiment: Antiviral activity in MT4 cells, low MOI strain selected at 1.000 μM, day 35; settings: for Fold resistance: Comp. 1 1.000 μM, vs wild type; for EC50: Human immunodeficiency virus 1, MT4, Comp. 1 1.000 μM, read-out: median(EC50 (μM))
Experimental: as §1, §2, §5, §3

[7] = system: HIV-1/LAI-derived strain I031L/I, F116F/L, Y181C, G190E, T386A; experiment: Antiviral activity in MT4 cells, low MOI strain selected at 5.000 μM, day 42; settings: for Fold resistance: Comp. 1 5.000 μM, vs wild type; for EC50: Human immunodeficiency virus 1, MT4, Comp. 1 5.000 μM, read-out: median(EC50 (μM))
Experimental: as §1, §2, §5, §3

[8] = system: HIV-1/LAI-derived strain I031L, A062A/V, Y181C, G190E, T386A; experiment: Antiviral activity in MT4 cells, low MOI strain selected at 15.000 μM, day 42; settings: for Fold resistance: Comp. 1 15.000 μM, vs wild type; for EC50: Human immunodeficiency virus 1, MT4, Comp. 1 15.000 μM, read-out: median(EC50 (μM))
Experimental: as §1, §2, §5, §3

[9] = system: HIV-1/LAI-derived strain I031L, A062A/V, L074L/V, Y181C, G190E, T386A; experiment: Antiviral activity in MT4 cells, low MOI strain selected at 15.000 μM, day 59; settings: for Fold resistance: Comp. 1 15.000 μM, vs wild type; for EC50: Human immunodeficiency virus 1, MT4, Comp. 1 15.000 μM, read-out: median(EC50 (μM))
Experimental: as §1, §2, §5, §3

[10] = system: HIV-1/LAI-derived strain I031L/I, Y181C, G190E, T386A; experiment: Antiviral activity in MT4 cells, low MOI strain selected at 5.000 μM, day 35; settings: for Fold resistance: Comp. 1 5.000 μM, vs wild type; for EC50: Human immunodeficiency virus 1, MT4, Comp. 1 5.000 μM, read-out: median(EC50 (μM))
Experimental: as §1, §2, §5, §3

[11] = system: HIV-1/LAI; experiment: In vitro selection of resistant strains, high MOI, MT4-LTR-EGFP cells; settings: starting strain LAI, 0.200 μM, emerging L100L/I, Y181C, T386A
Experimental: as §4
(§6) In vitro drug selection experiments starting from wild-type HIV-1/LAI under pressure of compound 1, Efavirenz and Nevirapine have been performed.

[12] = system: HIV-1/LAI; experiment: In vitro selection of resistant strains, low MOI, MT4-LTR-EGFP cells; settings: Y181C, T386A
From the text: as §5, §6

In the case of `O=C1Nc2ccc(Cl)cc2[C@@](C#CC2CC2)(C(F)(F)F)O1` [Efavirenz], the EC50 [1] is reported as 0.001 µM, the Fold resistance [1] is reported as 1 fold and the EC50 [2] is reported as 0.208 µM. It also gave a Fold resistance [2] of 208 fold, a Fold resistance [3] of 7 fold and an EC50 [3] of 0.0067 µM. The Fold resistance [4] was 7 fold, the EC50 [4] was 0.0067 µM and the Fold resistance [5] was 7 fold. For the same molecule, the EC50 [5] was 0.0072 µM, the Fold resistance [6] was 46 fold and the EC50 [6] was 0.0465 µM. It also gave a Fold resistance [7] of 44 fold, an EC50 [7] of 0.0442 µM and a Fold resistance [8] of 209 fold. For the same molecule, the EC50 [8] was 0.209 µM, the Fold resistance [9] was >10,000 fold and the EC50 [9] was greater than 10 µM.
`Cc1ccnc2c1NC(=O)c1cccnc1N2C1CC1` [Nevirapine] showed an EC50 [1] of 0.0763 µM, a Fold resistance [1] of 1 fold and a Fold resistance [3] greater than 131 fold. For the same molecule, the EC50 [3] was greater than 10 µM, the Fold resistance [4] was greater than 131 fold and the EC50 [4] was greater than 10 µM. The Fold resistance [5] was greater than 131 fold, the EC50 [5] was greater than 10 µM and the Fold resistance [6] was greater than 131 fold. It also gave an EC50 [6] greater than 10 µM, a Fold resistance [10] greater than 131 fold and an EC50 [10] greater than 10 µM. For the same molecule, the Fold resistance [7] was greater than 131 fold, the EC50 [7] was greater than 10 µM and the Fold resistance [8] was greater than 131 fold. For the same molecule, the EC50 [8] was greater than 10 µM, the Fold resistance [9] was greater than 131 fold and the EC50 [9] was greater than 10 µM.
`Cc1cc(C#N)cc(C)c1Oc1nc(Nc2ccc(C#N)cc2)nc(N)c1Br` [Compound 1, Benzonitrile, 4-[[6-amino-5-bromo-2-[(4-cyanophenyl)-amino]-4-pyrimidinyl]oxy]-3,5-dimethyl-] showed an EC50 [1] of 0.0014 µM, a Fold resistance [1] of 1 fold and an EC50 [2] of 0.11 µM. For the same molecule, the Fold resistance [2] was 78 fold, the Fold resistance [3] was 24 fold and the EC50 [3] was 0.0334 µM. The Fold resistance [4] was 21 fold, the EC50 [4] was 0.0298 µM and the Fold resistance [5] was 16 fold. For the same molecule, the EC50 [5] was 0.0228 µM, the Fold resistance [6] was 155 fold and the EC50 [6] was 0.217 µM. The Fold resistance [10] was 282 fold, the EC50 [10] was 0.394 µM and the Fold resistance [7] was 90 fold. For the same molecule, the EC50 [7] was 0.126 µM, the Fold resistance [8] was 441 fold and the EC50 [8] was 0.618 µM. The Fold resistance [9] was >7,143 fold, the EC50 [9] was greater than 10 µM and the Days to breakthrough [11] was “day 25”. For the same molecule, the Days to breakthrough ([12]; 0.040 μM) was “day 15”, the Days to breakthrough ([12]; 0.200 μM, E006E/K, M230I) was “day 22” and the Days to breakthrough ([12]; 0.200 μM, M164M/I, D186D/N, M230M/I) was “day 28”. The Days to breakthrough ([12]; 1.000 μM, G190E) was “day 35”, the Days to breakthrough ([12]; 5.000 μM, I031L/I, F116F/L, G190E) was “day 42” and the Days to breakthrough ([12]; 5.000 μM, I031L/I, G190E) was “day 35”. The Days to breakthrough ([12]; 15.000 μM, I031L, A062A/V, L074L/V, G190E) was “day 59” and the Days to breakthrough ([12]; 15.000 μM, I031L, A062A/V, G190E) was “day 42”.
